According to BindingDB's records for patent US11787796 (Takeda Pharmaceutical, 2023):

Molecular target: Plasma kallikrein (Homo sapiens, UniProt P03952)
Assay: Inhibitory Activity of Exemplary Compounds Against Plasma Kallikrein
Description: Example compounds were evaluated for inhibition of the human activated kallikrein enzyme in two formats of an assay employing a fluorogenic peptide substrate. In one assay format, the concentrations of reagents were as follows: 20 mM Tris pH 7.5, 1 mM EDTA, 150 mM sodium chloride, 0.1% PEG-400, 0.1% Triton X-100, […], 300 uM Pro-Phe-Arg-7-amido-4-methylcoumarin substrate. Prior to reaction initiation with substrate, enzyme and inhibitors were preincubated for 30 min at RT. After initiation with substrate, reactions were incubated for 10 min at RT and fluorescence emission at 460 nm from 380 nm excitation measured with a microplate reader. In another assay format, the concentrations of reagents were as follows: 20 mM Tris pH 7.5, 1 mM EDTA, 150 mM sodium chloride, 0.1% PEG-400, 0.1% Triton X-100, 5 pM activated kallikrein enzyme, 300 uM Pro-Phe-Arg-7-amido-4-methylcoumarin substrate. Prior to reaction initiation with substrate, enzyme and inhibitors were preincubated for 30 min at RT. After initiation with substrate, reactions were incubated for 18 h at RT and fluorescence emission at 460 nm from 380 nm excitation measured with a microplate reader.

Chain of Plasma kallikrein (P03952 20-390 limits assumed): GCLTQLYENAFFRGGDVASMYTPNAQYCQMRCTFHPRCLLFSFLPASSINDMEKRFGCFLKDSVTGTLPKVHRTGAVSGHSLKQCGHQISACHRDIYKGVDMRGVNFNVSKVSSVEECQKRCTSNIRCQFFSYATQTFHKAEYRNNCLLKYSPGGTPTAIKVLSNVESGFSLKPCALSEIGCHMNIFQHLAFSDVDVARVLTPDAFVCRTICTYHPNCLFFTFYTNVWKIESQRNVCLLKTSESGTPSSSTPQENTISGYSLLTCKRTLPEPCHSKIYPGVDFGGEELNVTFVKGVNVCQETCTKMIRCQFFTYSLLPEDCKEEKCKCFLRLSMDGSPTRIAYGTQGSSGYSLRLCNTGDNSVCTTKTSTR
Chain of Plasma kallikrein (P03952 391-638 limits assumed): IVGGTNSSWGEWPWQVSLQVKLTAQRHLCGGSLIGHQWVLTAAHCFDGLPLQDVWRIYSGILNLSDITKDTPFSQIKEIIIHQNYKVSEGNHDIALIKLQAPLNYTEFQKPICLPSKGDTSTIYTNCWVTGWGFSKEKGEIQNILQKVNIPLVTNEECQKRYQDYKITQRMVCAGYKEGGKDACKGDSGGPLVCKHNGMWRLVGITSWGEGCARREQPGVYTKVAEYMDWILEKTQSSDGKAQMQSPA

COc1ccc(-n2cnnn2)c(CNC(=O)c2nnn(Cc3cn4cc(C5CC5)ccc4n3)n2)c1F [US11787796, Compound I-28]
EC50: < 1 nM
